Positions of bridges follow the written chain, without caps; N, C: chain ends. Non-standard residues stand in square brackets, D forms with d. Residues, ends and D or L forms follow the SMILES beside them. Chains are numbered I, II in the order given. ξ: configuration not given here. *: point of attachment. S(3-COOH-4-NO2-phenyl) = O=C(O)c1cc(S*)ccc1[N+](=O)[O-]; C16 diacid = O=C(O)CCCCCCCCCCCCCCC(=O)*; Thr(3ξ) = CC(O)[C@H](N)C(=O)O; ξP = O=C(O)C1CCCN1
How the values were obtained:
[1] = biological target: Human immunodeficiency virus type 1 protease (Human immunodeficiency virus 1) (UniProt Q72874); assay: Inhibitory concentration of compound resulting in half-maximal inactivation of HIV-1 protease
[2] = biological target: Human immunodeficiency virus type 1 protease (Human immunodeficiency virus 1) (UniProt Q72874); assay: Maximal inactivation rate of compound tested against HIV-1 protease

Compound: CC[C@H](C)[C@H](NC(=O)[C@H](CCC(N)=O)NC(=O)C1CCCN1C(=O)CCCCCCCCCCCCCCC(=O)N[C@@H](CO)C(=O)N[C@H](C(=O)N[C@@H](CC(C)C)C(=O)N[C@@H](CC(N)=O)C(=O)N[C@@H](CSSc1ccc([N+](=O)[O-])c(C(=O)O)c1)C(=O)O)[C@@H](C)O)C(=O)N[C@H](C(=O)N[C@@H](CC(C)C)C(=O)N[C@@H](Cc1c[nH]c2ccccc12)C(=O)O)C(C)O (some centres not stated) (I: [ξP]QI[Thr(3ξ)]LW-OH / II: STLNC(S(3-COOH-4-NO2-phenyl))-OH; linker I:N-II:N via C16 diacid)
- K inact [1]: 3.7 µM
- Vinact [2]: 0.012 min⁻¹

— ChEMBL document CHEMBL1133033, “Targeting the dimerization interface for irreversible inhibition of HIV-1 protease” (Bioorg Med Chem Lett, 2000)
